Experimental data published in patent US7825245B2, “Substituted 4-anilinoquinazolines and their use in tumor treatment” (priority 2005, dated 2010).

How the values were obtained:
[1] = water solubility of the isolated product; assay type: physicochemical; details: isolated white powder
[2] = pH of the isolated product; assay type: physicochemical; details: isolated white powder

With `C#CC1CCN(Nc2c(OC)cc3ncnc(N(C)c4ccc(C)cc4)c3c2CC)CC1` [III-1] the water solubility [1] was “water-soluble” and the pH [2] was 6.4.
For `C=CC1CCN(Sc2cc3c(N(C)c4ccc(CC)cc4)ncnc3c(C)c2OCCC)CC1` [Compound V-1], the water solubility [1] was “water-soluble” and the pH [2] was 6.4.
For `C=CC1CCN(C(=O)Oc2cc3c(N(C)c4ccc(CC)cc4)ncnc3c(C)c2OCC)CC1` [II-1], the water solubility [1] was “water-soluble” and the pH [2] was 6.4.
